Molecules are shown by their SMILES.

One experiment deals with FLAG-tagged PDE2A1 (amino acids 2-941) (Homo sapiens (Human), UniProt O00408). Put plainly: IMAP TR-FRET PDE2A enzymatic assay. The class given is biochemical. To be noted: 200 nM FAM-cAMP substrate, 11-point half-log dose-response. An excerpt: An IMAP TR-FRET-based phosphodiesterase assay was developed using the PDE2A isoform. IMAP technology is based on high-affinity binding of phosphate by immobilized metal (MIII) coordination complexes on nanoparticles. The IMAP “binding reagent” recognizes phosphate groups on AMP or GMP generated from cAMP or cGMP in a PDE reaction. Cyclic nucleotides that carry a phosphodiester bond and not a free phosphate are not recognized by the binding reagent. The time resolved fluorescence resonance energy transfer (TR-FRET) is afforded by a Terbium (Tb)-Donor pre-bound to the nanoparticles. FRET occurs when the fluorescent-labeled AMP or GMP product of a PDE reaction binds and comes into close proximity to the Tb-Donor complex. Due to the long lifetime of Tb fluorescence, detection can be run in time-resolved mode to reduce or eliminate interference from auto-fluorescent compounds.
Sequence of FLAG-tagged PDE2A1 (amino acids 2-941) (O00408 2-941): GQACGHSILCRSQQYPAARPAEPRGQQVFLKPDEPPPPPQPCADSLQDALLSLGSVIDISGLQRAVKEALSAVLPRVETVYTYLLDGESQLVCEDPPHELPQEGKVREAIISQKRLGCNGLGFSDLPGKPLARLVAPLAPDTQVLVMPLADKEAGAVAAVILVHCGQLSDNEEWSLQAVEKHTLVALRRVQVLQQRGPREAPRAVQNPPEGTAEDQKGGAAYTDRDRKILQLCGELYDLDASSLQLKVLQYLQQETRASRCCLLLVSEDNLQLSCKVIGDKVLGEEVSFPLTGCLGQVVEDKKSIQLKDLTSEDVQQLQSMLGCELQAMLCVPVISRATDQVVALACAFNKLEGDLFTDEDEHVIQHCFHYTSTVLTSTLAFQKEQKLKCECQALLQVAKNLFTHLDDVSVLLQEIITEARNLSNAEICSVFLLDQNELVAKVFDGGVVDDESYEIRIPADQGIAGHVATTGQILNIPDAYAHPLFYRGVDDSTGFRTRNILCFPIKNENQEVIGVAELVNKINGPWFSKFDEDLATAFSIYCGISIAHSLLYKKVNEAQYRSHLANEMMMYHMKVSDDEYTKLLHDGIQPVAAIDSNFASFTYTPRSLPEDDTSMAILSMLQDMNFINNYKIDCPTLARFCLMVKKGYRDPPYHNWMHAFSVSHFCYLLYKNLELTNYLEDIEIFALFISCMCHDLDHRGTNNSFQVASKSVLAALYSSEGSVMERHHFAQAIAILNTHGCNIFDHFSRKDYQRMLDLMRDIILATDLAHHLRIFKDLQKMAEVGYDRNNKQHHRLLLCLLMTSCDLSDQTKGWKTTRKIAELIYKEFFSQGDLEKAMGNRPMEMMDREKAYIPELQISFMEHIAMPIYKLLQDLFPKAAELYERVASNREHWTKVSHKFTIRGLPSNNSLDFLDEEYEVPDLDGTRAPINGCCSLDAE
The IMAP TR-FRET PDE2A assay was performed in 1536-well white plates. A total of 250 pg per well of FLAG-tagged PDE2A1 (amino acids 2-941) was dispensed in 2.5 μL IMAP assay buffer consisting of 10 mM Tris pH 7.2, 10 mM MgCl2, 1 mM DTT, and 0.1% fatty acid free BSA. 30 nL of compound was then added from 1 mM stocks in DMSO using a Kalypsys Pintool. Plates were incubated for 5 min at room temperature before dispensing 1.5 μL of 533 nM FAM-cAMP substrate for a final concentration of 200 nM. Following a brief centrifugation, plates were incubated for 30 min at room temperature. The assay was terminated by adding 5 μL IMAP binding reagent Tb complex to each well which was prepared according to manufacturer's recommendations (Molecular Devices). Plates were incubated an additional 90 minutes at room temperature and read on a Viewlux plate reader. All compounds were solvated at a concentration of 10 mM in DMSO and tested in 11-point half-log dose-response. Curve fitting and IC50 values were determined using a standard four parameter fit.
Background: Time-resolved FRET reads energy transfer from a long-lived donor to a nearby acceptor.
As to `Cc1cc(C2CCOCC2)n2nc(NCc3cc(Cl)ccc3F)nc2n1` [Example 13, N-(5-Chloro-2-fluorobenzyl)-5-methyl-7-(tetrahydro-2H-pyran-4-yl)-[1,2,4]triazolo[1,5-a]pyrimidin-2-amine], the “PDE2 (PIC50)” value was more than 7. Still for that read-out and setting: for `COc1ccc(CNc2nc3nc(C)cc(C4CCOCC4)n3n2)c(F)c1` [Example 15, N-[(2-Fluoro-4-methoxyphenyl)methyl]-5-methyl-7-(oxan-4-yl)-[1,2,4]triazolo[1,5-a]pyrimidin-2-amine] the value was more than 7. For `Cc1cc(C2CCOCC2)n2nc(NCc3cnn(-c4ccccc4)c3)nc2n1` [Example 17, 5-Methyl-7-(oxan-4-yl)-N-[(1-phenyl-1H-pyrazol-4-yl)methyl]-[1,2,4]triazolo[1,5-a]pyrimidin-2-amine], the “PDE2 (PIC50)” value is more than 7. On to `COc1ccc(CNc2nc3nc(C)cc(C4CCN(C(C)=O)CC4)n3n2)cc1C(F)F` [Example 19, 1-{4-[2-({[3-(Difluoromethyl)-4-methoxyphenyl]methyl}amino)-5-methyl-[1,2,4]triazolo[1,5-a]pyrimidin-7-yl]piperidin-1-yl}ethan-1-one], for which the “PDE2 (PIC50)” value is recorded as more than 7. On to `CC(=O)N1CCC(c2cc(C)nc3nc(NCc4cccc(C(F)F)c4)nn23)CC1` [Example 20, 1-{4-[2-({[3-(Difluoromethyl)phenyl]methyl}amino)-5-methyl-[1,2,4]triazolo[1,5-a]pyrimidin-7-yl]piperidin-1-yl}ethan-1-one], for which the “PDE2 (PIC50)” value is reported as more than 7. On the same count and under the same terms, for `COc1ccc(CNc2nc3nc(C)cc(C4CCOCC4)n3n2)cc1Cl` [Example 21, N-[(3-Chloro-4-methoxyphenyl)methyl]-5-methyl-7-(oxan-4-yl)-[1,2,4]triazolo[1,5-a]pyrimidin-2-amine] the value was more than 7; for `Cc1cc(C2CCOCC2)n2nc(NCc3cccc(C(F)F)c3)nc2n1` [Example 23, N-{[3-(Difluoromethyl)phenyl]methyl}-5-methyl-7-(oxan-4-yl)-[1,2,4]triazolo[1,5-a]pyrimidin-2-amine], more than 7; for `COc1ccc(CNc2nc3nc(C)cc(C4CCOCC4)n3n2)cc1C(F)F` [Example 25, N-{[3-(Difluoromethyl)-4-methoxyphenyl]methyl}-5-methyl-7-(oxan-4-yl)-[1,2,4]triazolo[1,5-a]pyrimidin-2-amine], more than 7.

Staying with this experiment, now noted: 200 nM FAM-cAMP substrate, 11-point half-log dose-response, read-out: PDE2 (PIC50).
Consider `COc1ccc(CNc2nc3nc(C)cc(C4CCOCC4)n3n2)cc1` [Example 1, N-(4-Methoxybenzyl)-5-methyl-7-(tetrahydro-2H-pyran-4-yl)-[1,2,4]triazolo[1,5-a]pyrimidin-2-amine], for which the IC50 fell in the range of 100 to 1000 nM. The same measure, in the same setting: for `Cc1cc(C2CC2)n2nc(NCc3ccc4c(c3)CCO4)nc2n1` [Example 2, 7-Cyclopropyl-N-((2,3-dihydrobenzofuran-5-yl)methyl)-5-methyl-[1,2,4]triazolo[1,5-a]pyrimidin-2-amine] the value was 1000 to 10000 nM.

Consider `Cc1cc(C2CC2)n2nc(NCc3ccc4c(c3)OCC4)nc2n1` [Example 3, 7-Cyclopropyl-N-((2,3-dihydrobenzofuran-6-yl)methyl)-5-methyl-[1,2,4]triazolo[1,5-a]pyrimidin-2-amine], for which the IC50 lay within 1000 to 10000 nM.

For `COc1ccc(CNc2nc3nc(C)cc(C4CC4)n3n2)cc1` [Example 4, 7-Cyclopropyl-N-(4-methoxybenzyl)-5-methyl-[1,2,4]triazolo[1,5-a]pyrimidin-2-amine], the IC50 is 1000 to 10000 nM.

In the case of `Cc1cc(C2CCCC2)n2nc(NCc3ccc4c(c3)CCC4)nc2n1` [Example 5, 7-Cyclopentyl-N-((2,3-dihydro-1H-inden-5-yl)methyl)-5-methyl-[1,2,4]triazolo[1,5-a]pyrimidin-2-amine], the IC50 lay in the range of 100 to 1000 nM. With `Cc1cc(C(C)C)n2nc(NCc3ccc4c(c3)CCC4)nc2n1` [Example 6, N-((2,3-Dihydro-1H-inden-5-yl)methyl)-7-isopropyl-5-methyl-[1,2,4]triazolo[1,5-a]pyrimidin-2-amine], the IC50 lay in the range of 100 to 1000 nM. `Cc1cc(C(C)C)n2nc(NCc3cccc(Cl)c3)nc2n1` [Example 7, N-(3-Chlorobenzyl)-7-isopropyl-5-methyl-[1,2,4]triazolo[1,5-a]pyrimidin-2-amine]: the IC50 lay within 1000 to 10000 nM. On the same count and under the same terms, in the case of `Cc1cc(C(C)C)n2nc(NCc3ccccc3)nc2n1` [Example 8, N-Benzyl-7-isopropyl-5-methyl-[1,2,4]triazolo[1,5-a]pyrimidin-2-amine] it was 1000 to 10000 nM. Consider `Cc1cc(C(C)(C)C)n2nc(NCc3cccc(Cl)c3)nc2n1` [Example 9, 7-(tert-Butyl)-N-(3-chlorobenzyl)-5-methyl-[1,2,4]triazolo[1,5-a]pyrimidin-2-amine], for which the IC50 is 100 to 1000 nM. Same read-out and setting: for `COc1ccc(CNc2nc3nc(C)cc(C(C)C)n3n2)cc1` [Example 10, 7-Isopropyl-N-(4-methoxybenzyl)-5-methyl-[1,2,4]triazolo[1,5-a]pyrimidin-2-amine] the value was 1000 to 10000 nM; for `CCC(C)c1cc(C)nc2nc(NCc3ccc(OC)cc3)nn12` (stereo not drawn) [Example 11, 7-(sec-butyl)-N-(4-Methoxybenzyl)-5-methyl-[1,2,4]triazolo[1,5-a]pyrimidin-2-amine], 100 to 1000 nM. Take `COc1ccc(CNc2nc3nc(C)cc(C4CCCO4)n3n2)cc1` (stereo not drawn) [Example 12, N-(4-Methoxybenzyl)-5-methyl-7-(tetrahydrofuran-2-yl)-[1,2,4]triazolo[1,5-a]pyrimidin-2-amine]: the IC50 was 1000 to 10000 nM.

Regarding `Cc1cc(C2CCOCC2)n2nc(NCc3cc(F)cc(F)c3)nc2n1` [Example 14, N-[(3,5-Difluorophenyl)methyl]-5-methyl-7-(oxan-4-yl)-[1,2,4]triazolo[1,5-a]pyrimidin-2-amine], the IC50 was in the range of 100 to 1000 nM. Still for that read-out and setting: for `Cc1cc(C2CCOCC2)n2nc(NCc3ccc4c(c3)OCCO4)nc2n1` [Example 16, N-(2,3-Dihydro-1,4-benzodioxin-6-ylmethyl)-5-methyl-7-(oxan-4-yl)-[1,2,4]triazolo[1,5-a]pyrimidin-2-amine] the value was 100 to 1000 nM; for `COc1ccc(CNc2nc3nc(C)cc(C4CCN(C(C)=O)CC4)n3n2)cc1` [Example 18, 1-[4-(2-[(4-Methoxyphenyl)methyl]amino-5-methyl-[1,2,4]triazolo[1,5-a]pyrimidin-7-yl)piperidin-1-yl]ethan-1-one], 100 to 1000 nM. Take `COc1ccc(CNc2nc3nc(C)cc(C4CCC(F)(F)CC4)n3n2)cc1` [Example 22, 7-(4,4-Difluorocyclohexyl)-N-[(4-methoxyphenyl)methyl]-5-methyl-[1,2,4]triazolo[1,5-a]pyrimidin-2-amine]: the IC50 was in the range of 100 to 1000 nM. Still for that read-out and setting: in the case of `COc1cccc(CNc2nc3nc(C)cc(C4CCOCC4)n3n2)c1` [Example 24, N-[(3-Methoxyphenyl)methyl]-5-methyl-7-(oxan-4-yl)-[1,2,4]triazolo[1,5-a]pyrimidin-2-amine] it was 100 to 1000 nM; in that of `Cc1cc(C2CCOCC2)n2nc(NCc3ccccc3F)nc2n1` [Example 26, N-[(2-Fluorophenyl)methyl]-5-methyl-7-(oxan-4-yl)-[1,2,4]triazolo[1,5-a]pyrimidin-2-amine], 100 to 1000 nM. On the same count and under the same terms, for `Cc1ccc(F)c(CNc2nc3nc(C)cc(C4CCOCC4)n3n2)c1` [Example 27, N-[(2-Fluoro-5-methylphenyl)methyl]-5-methyl-7-(oxan-4-yl)-[1,2,4]triazolo[1,5-a]pyrimidin-2-amine] the value was 100 to 1000 nM.
